Data as given in patent US12577206B2 (BRISTOL-MYERS SQUIBB COMPANY, priority 2020, dated 2026).

Assays:
human FPR1 = molecular target: T1, human FPR1 (Homo sapiens, UniProt P21462); assay: FPR1 cyclic adenosine monophosphate (cAMP) assay; format: cell-based; settings: CHO cells overexpressing human FPR1; forskolin 10 μM; inhibition of cAMP production; HTRF; read-out: hFPR1 cAMP2 EC50
T1 sequence (P21462 1-350): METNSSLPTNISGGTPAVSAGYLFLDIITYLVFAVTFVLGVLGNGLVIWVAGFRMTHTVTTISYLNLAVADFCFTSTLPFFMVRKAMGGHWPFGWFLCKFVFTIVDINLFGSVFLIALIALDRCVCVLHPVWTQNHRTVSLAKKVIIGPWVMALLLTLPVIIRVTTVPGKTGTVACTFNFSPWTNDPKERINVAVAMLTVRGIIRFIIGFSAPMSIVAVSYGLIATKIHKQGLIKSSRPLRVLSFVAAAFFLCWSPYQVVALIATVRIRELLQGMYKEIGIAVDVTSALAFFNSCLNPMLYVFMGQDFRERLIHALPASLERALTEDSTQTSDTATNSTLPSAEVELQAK
Outline: (§1)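 CHO/hFPR1 4,000 cells/well, forskolin 10 μM final; CHO/hFPR2 2,000 cells/well, forskolin 5 μM final. IBMX 200 μM, DMSO 1%, DPBS + Ca/Mg + 0.1% BSA, 30 min rt. HTRF cAMP; 4-PL fit.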

human FPR2 = molecular target: T2, human FPR2 (Homo sapiens, UniProt P25090); assay: FPR2 cyclic adenosine monophosphate (cAMP) assay; format: cell-based; settings: CHO cells overexpressing human FPR2; forskolin 5 μM; inhibition of cAMP production; HTRF; read-out: hFPR2 cAMP2 EC50
T2 sequence (P25090 1-351): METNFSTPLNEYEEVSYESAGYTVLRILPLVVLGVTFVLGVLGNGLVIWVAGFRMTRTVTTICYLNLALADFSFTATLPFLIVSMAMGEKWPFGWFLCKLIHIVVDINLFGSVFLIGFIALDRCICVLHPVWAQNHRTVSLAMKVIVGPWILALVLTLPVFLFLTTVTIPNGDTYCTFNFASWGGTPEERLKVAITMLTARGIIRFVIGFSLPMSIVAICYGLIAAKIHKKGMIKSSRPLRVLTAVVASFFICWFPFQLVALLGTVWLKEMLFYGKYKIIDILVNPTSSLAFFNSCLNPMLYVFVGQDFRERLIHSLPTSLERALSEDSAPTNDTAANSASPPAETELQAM
Outline: as §1

COc1cc(F)c(-c2c(NC(=O)c3ccc(OC(F)F)cc3)c(=O)n(-c3nc(N4CCN(CC(F)(F)F)CC4)ccc3Cl)n2C)c(F)c1 [Example 239, N-(2-{3-chloro-6-[4-(2,2,2-trifluoroethyl)piperazin-1-yl]pyridin-2-yl}-5-(2,6-difluoro-4-methoxyphenyl)-1-methyl-3-oxo-2,3-dihydro-1H-pyrazol-4-yl)-4-(difluoromethoxy)benzamide]
EC50 (human FPR1): 2700 nM | EC50 (human FPR2): 5 nM

COc1cc(F)c(-c2c(NC(=O)c3ccc(OC(F)F)cc3)c(=O)n(-c3nc(N4CCN(CC(F)F)CC4)ccc3Cl)n2C)c(F)c1 [Example 240, N-(2-{3-chloro-6-[4-(2,2-difluoroethyl)piperazin-1-yl]pyridin-2-yl}-5-(2,6-difluoro-4-methoxyphenyl)-1-methyl-3-oxo-2,3-dihydro-1H-pyrazol-4-yl)-4-(difluoromethoxy)benzamide]
EC50 (human FPR1): 1300 nM | EC50 (human FPR2): 2 nM

COc1cc(F)c(-c2c(NC(=O)c3ccc(OC(F)F)cc3)c(=O)n(-c3nc(N(C)S(C)(=O)=O)ccc3C(F)(F)F)n2C)c(F)c1 [Example 241, N-[5-(2,6-difluoro-4-methoxyphenyl)-1-methyl-2-[6-(N-methylmethanesulfonamido)-3-(trifluoromethyl)pyridin-2-yl]-3-oxo-2,3-dihydro-1H-pyrazol-4-yl]-4-(difluoromethoxy)benzamide]
EC50 (human FPR1): > 10000 nM | EC50 (human FPR2): 2 nM

COc1cc(F)c(-c2c(NC(=O)c3ccc(OC(F)F)cc3)c(=O)n(-c3nc(Cl)ccc3Cl)n2C)c(F)c1 [Example 242, N-[2-(3,6-dichloropyridin-2-yl)-5-(2,6-difluoro-4-methoxyphenyl)-1-methyl-3-oxo-2,3-dihydro-1H-pyrazol-4-yl]-4-(difluoromethoxy)benzamide]
EC50 (human FPR1): > 10000 nM | EC50 (human FPR2): 20 nM

COc1cc(F)c(-c2c(NC(=O)c3ccc(OC(F)F)cc3)c(=O)n(-c3nc(N[C@H](C)C4CC4)ccc3C(F)(F)F)n2C)c(F)c1 [Example 243, N-[2-(6-{[(1R)-1-cyclopropylethyl]amino}-3-(trifluoromethyl)pyridin-2-yl)-5-(2,6-difluoro-4-methoxyphenyl)-1-methyl-3-oxo-2,3-dihydro-1H-pyrazol-4-yl]-4-(difluoromethoxy)benzamide]
EC50 (human FPR1): > 10000 nM | EC50 (human FPR2): 6 nM

CCc1ccc(N2CCN(C)CC2)nc1-n1c(=O)c(NC(=O)c2ccc(OC(F)F)cc2)c(-c2c(F)cc(OC)cc2F)n1C [Example 244, N-[5-(2,6-difluoro-4-methoxyphenyl)-2-[3-ethyl-6-(4-methylpiperazin-1-yl)pyridin-2-yl]-1-methyl-3-oxo-2,3-dihydro-1H-pyrazol-4-yl]-4-(difluoromethoxy)benzamide]
EC50 (human FPR1): > 10000 nM | EC50 (human FPR2): 35 nM

COc1ccc(-c2c(NC(=O)c3ccc(OC(F)F)cc3)c(=O)n(-c3ncccc3Cl)n2C)cc1 [Example 245, N-[2-(3-chloropyridin-2-yl)-5-(4-methoxyphenyl)-1-methyl-3-oxo-2,3-dihydro-1H-pyrazol-4-yl]-4-(difluoromethoxy)benzamide]
EC50 (human FPR1): 1200 nM | EC50 (human FPR2): 20 nM

COc1ccc(-c2c(NC(=O)c3ccc(OC(F)F)cc3)c(=O)n(-c3ncccc3C(F)(F)F)n2C)cc1C [Example 246, 4-(difluoromethoxy)-N-(5-(4-methoxy-3-methylphenyl)-1-methyl-3-oxo-2-(3-(trifluoromethyl)pyridin-2-yl)-2,3-dihydro-1H-pyrazol-4-yl)benzamide]
EC50 (human FPR1): > 10000 nM | EC50 (human FPR2): 315 nM

COc1cc(F)c(-c2c(NC(=O)c3ccc(OC(F)F)cc3)c(=O)n(-c3nc(N4CCN(S(C)(=O)=O)CC4)ccc3Cl)n2C)c(F)c1 [Example 247, N-{2-[3-chloro-6-(4-methanesulfonylpiperazin-1-yl)pyridin-2-yl]-5-(2,6-difluoro-4-methoxyphenyl)-1-methyl-3-oxo-2,3-dihydro-1H-pyrazol-4-yl}-4-(difluoromethoxy)benzamide]
EC50 (human FPR1): 630 nM | EC50 (human FPR2): 5 nM

CCOc1ccc(Cl)nc1-n1c(=O)c(NC(=O)c2ccc(OC(F)F)cc2)c(-c2c(F)cc(OC)cc2F)n1C [Example 248, N-[2-(6-chloro-3-ethoxypyridin-2-yl)-5-(2,6-difluoro-4-methoxyphenyl)-1-methyl-3-oxo-2,3-dihydro-1H-pyrazol-4-yl]-4-(difluoromethoxy)benzamide]
EC50 (human FPR1): > 10000 nM | EC50 (human FPR2): 8 nM

Cn1c(-c2ccc(Cl)cc2)c(NC(=O)c2ccc(OC(F)F)cc2)c(=O)n1-c1ncccc1C(F)(F)F [Example 249, N-[5-(4-chlorophenyl)-1-methyl-3-oxo-2-[3-(trifluoromethyl)pyridin-2-yl]-2,3-dihydro-1H-pyrazol-4-yl]-4-(difluoromethoxy)benzamide]
EC50 (human FPR1): 510 nM | EC50 (human FPR2): 38 nM

COc1ccc(-c2c(NC(=O)c3ccc(OC(F)F)cc3)c(=O)n(-c3ncccc3C(F)(F)F)n2C)cc1 [Example 250, 4-(difluoromethoxy)-N-[5-(4-methoxyphenyl)-1-methyl-3-oxo-2-[3-(trifluoromethyl)pyridin-2-yl]-2,3-dihydro-1H-pyrazol-4-yl]benzamide]
EC50 (human FPR1): 970 nM | EC50 (human FPR2): 13 nM

COc1cc(F)c(-c2c(NC(=O)c3ccc(OC(F)F)cc3)c(=O)n(-c3nc(NC4CC4)ccc3C(F)(F)F)n2C)c(F)c1 [Example 251, N-{2-[6-(cyclopropylamino)-3-(trifluoromethyl)pyridin-2-yl]-5-(2,6-difluoro-4-methoxyphenyl)-1-methyl-3-oxo-2,3-dihydro-1H-pyrazol-4-yl}-4-(difluoromethoxy)benzamide]
EC50 (human FPR1): > 10000 nM | EC50 (human FPR2): 2 nM

COc1cc(F)c(-c2c(NC(=O)c3ccc(OC(F)F)cc3)c(=O)n(-c3nc(NCC(=O)N(C)C)ccc3C(F)(F)F)n2C)c(F)c1 [Example 252, N-[5-(2,6-difluoro-4-methoxyphenyl)-2-(6-{[(dimethylcarbamoyl)methyl]-amino}-3-(trifluoromethyl)pyridin-2-yl)-1-methyl-3-oxo-2,3-dihydro-1H-pyrazol-4-yl]-4-(difluoromethoxy)benzamide]
EC50 (human FPR1): > 10000 nM | EC50 (human FPR2): 12 nM

COc1cc(F)c(-c2c(NC(=O)c3ccc(OC(F)F)cc3)c(=O)n(-c3nc(NC4COC4)ccc3C(F)(F)F)n2C)c(F)c1 [Example 253, N-[5-(2,6-difluoro-4-methoxyphenyl)-1-methyl-2-{6-[(oxetan-3-yl)amino]-3-(trifluoromethyl)pyridin-2-yl}-3-oxo-2,3-dihydro-1H-pyrazol-4-yl]-4-(difluoromethoxy)benzamide]
EC50 (human FPR1): > 10000 nM | EC50 (human FPR2): 5 nM

COc1cc(F)c(-c2c(NC(=O)c3ccc(OC(F)F)cc3)c(=O)n(-c3nc(N[C@@H]4CCOC4)ccc3C(F)(F)F)n2C)c(F)c1 [Example 254, N-[5-(2,6-difluoro-4-methoxyphenyl)-1-methyl-3-oxo-2-(6-{[(3R)-oxolan-3-yl]amino}-3-(trifluoromethyl)pyridin-2-yl)-2,3-dihydro-1H-pyrazol-4-yl]-4-(difluoromethoxy)benzamide]
EC50 (human FPR1): > 10000 nM | EC50 (human FPR2): 4 nM

COc1cc(F)c(-c2c(NC(=O)c3ccc(OC(F)F)cc3)c(=O)n(-c3nc(N[C@H]4CCOC4)ccc3C(F)(F)F)n2C)c(F)c1 [Example 255]
EC50 (human FPR1): > 10000 nM | EC50 (human FPR2): 2 nM

COc1cc(F)c(-c2c(NC(=O)c3ccc(OC(F)F)cc3)c(=O)n(-c3nc(NC(C)(C)CO)ccc3C(F)(F)F)n2C)c(F)c1 [Example 256, N-[5-(2,6-difluoro-4-methoxyphenyl)-2-{6-[(1-hydroxy-2-methylpropan-2-yl)amino]-3-(trifluoromethyl)pyridin-2-yl}-1-methyl-3-oxo-2,3-dihydro-1H-pyrazol-4-yl]-4-(difluoromethoxy)benzamide]
EC50 (human FPR1): > 10000 nM | EC50 (human FPR2): 3 nM

COc1cc(F)c(-c2c(NC(=O)c3ccc(OC(F)F)cc3)c(=O)n(-c3nc(OC)ccc3C(F)(F)F)n2C)c(F)c1 [Example 257, N-[5-(2,6-difluoro-4-methoxyphenyl)-2-[6-methoxy-3-(trifluoromethyl)pyridin-2-yl]-1-methyl-3-oxo-2,3-dihydro-1H-pyrazol-4-yl]-4-(difluoromethoxy)benzamide]
EC50 (human FPR1): > 10000 nM | EC50 (human FPR2): 10 nM

COc1cc(F)c(-c2c(NC(=O)c3ccc(OC(F)F)cc3)c(=O)n(-c3nc(N4CCC[C@H]4CO)ccc3C(F)(F)F)n2C)c(F)c1 [Example 258, N-[5-(2,6-difluoro-4-methoxyphenyl)-2-{6-[(2S)-2-(hydroxymethyl)pyrrolidin-1-yl]-3-(trifluoromethyl)pyridin-2-yl}-1-methyl-3-oxo-2,3-dihydro-1H-pyrazol-4-yl]-4-(difluoromethoxy)benzamide]
EC50 (human FPR1): > 5000 nM | EC50 (human FPR2): 9 nM
